# Test results published in patent US10568921B1, “Extract of Vicia faba beans” (priority 2018, dated 2020).
# Where “and” joins values, the source holds several entries; their conditions need not be identical. Identical values can stand only once.
# Tested on: strychnine-induced convulsions
# Test: Strychnine-induced convulsions in mice, i.p. pretreatment with test substance
# Type: in vivo, BALB/c mice
# [1] = 50 mg/kg i.p. + strychnine 0.45 mg/kg i.p., individual mice No. 1-10
smiles,measurement,setting,value
"CCC1(c2ccccc2)C(=O)NC(=O)NC1=O [Phenobarbitone, phenobarbitone]",Survival recovered time after strychnine injection,[1],80 minutes (3×) and 90 minutes and 70 minutes (3×) and 75 minutes (3×)
same,Time to first convulsion,[1],5 minutes and 7 minutes (3×) and 6.5 minutes and 8 minutes (2×) and 9 minutes (2×) and 10 minutes
same,"Survival recovered time after strychnine injection, mean","50 mg/kg i.p. + strychnine 0.45 mg/kg i.p., mean of 10 mice",76.5 ± 5.58 min
same,Protection against strychnine-induced convulsions (in words),"50 mg/kg i.p. before strychnine (A-1 twenty minutes, phenobarbitone 15 minutes), mice","protected against the strychnine-induced convulsions, completely"
